Measured values from paper PMC5218480 (PLoS ONE, 2017).

Test system: MV-4-11 cells
Assay: Gene expression microarray analysis (Affymetrix PrimeView) and GSEA
Type: cell-based, human
Design: RFU PODN (11730768_x_at) / Fold change /veh PODN (11730768_x_at) / RFU LINC00158 (11744669_a_at) / Fold change /veh LINC00158 (11744669_a_at) / RFU DUSP10 (11751237_a_at) / Fold change /veh DUSP10 (11751237_a_at) / RFU ID3 (11757404_x_at) / Fold change /veh ID3 (11757404_x_at) / RFU PLEKHG5 (11737974_s_at) / Fold change /veh PLEKHG5 (11737974_s_at) / RFU LRRC4B (11730491_at) / Fold change /veh LRRC4B (11730491_at) / RFU GIMAP4 (11747438_a_at) / Fold change /veh GIMAP4 (11747438_a_at) / RFU KRT8 (11758183_x_at) / Fold change /veh KRT8 (11758183_x_at) / RFU CNN1 (11734310_a_at) / Fold change /veh CNN1 (11734310_a_at) / RFU VPS37D (11726825_at) / Fold change /veh VPS37D (11726825_at) / RFU C10orf10 (11716522_x_at) / Fold change /veh C10orf10 (11716522_x_at) / RFU KIR2DL2 /// KIR2DL4 /// KIR2DL5A /// KIR2DL5B /// KIR2DS1 /// KIR2DS2 /// KIR2DS3 /// KIR2DS4 /// KIR3DL3 /// KIR3DL3 /// KIR3DS1 (11738374_at) / Fold change /veh KIR2DL2 /// KIR2DL4 /// KIR2DL5A /// KIR2DL5B /// KIR2DS1 /// KIR2DS2 /// KIR2DS3 /// KIR2DS4 /// KIR3DL3 /// KIR3DL3 /// KIR3DS1 (11738374_at) / RFU C1QL1 (11718748_at) / Fold change /veh C1QL1 (11718748_at) / RFU TMPRSS4 (11747572_a_at) / Fold change /veh TMPRSS4 (11747572_a_at) / RFU HAMP (11756126_x_at) / Fold change /veh HAMP (11756126_x_at) / RFU RNFT2 (11725882_a_at) / Fold change /veh RNFT2 (11725882_a_at) / RFU NR4A2 (11747474_a_at) / Fold change /veh NR4A2 (11747474_a_at) / RFU ABCC12 (11746883_a_at) / Fold change /veh ABCC12 (11746883_a_at) / RFU TMEM136 (11760407_x_at) / Fold change /veh TMEM136 (11760407_x_at) / RFU CLDN22 /// WWC2 (11732394_at) / Fold change /veh CLDN22 /// WWC2 (11732394_at) / RFU HLA-DPB1 (11760878_x_at) / Fold change /veh HLA-DPB1 (11760878_x_at) / RFU SPINT1 (11716480_a_at) / Fold change /veh SPINT1 (11716480_a_at) / RFU GAP43 (11754022_s_at) / Fold change /veh GAP43 (11754022_s_at) / RFU A4GNT (11735810_at) / Fold change /veh A4GNT (11735810_at) / RFU PRB3 (11715151_x_at) / Fold change /veh PRB3 (11715151_x_at) / RFU TUBB4B (11761932_at) / Fold change /veh TUBB4B (11761932_at) / RFU CAPN14 (11732068_a_at) / Fold change /veh CAPN14 (11732068_a_at) / RFU TMCC2 (11721928_a_at) / Fold change /veh TMCC2 (11721928_a_at) / RFU IRGQ (11745062_a_at) / Fold change /veh IRGQ (11745062_a_at) / RFU FAM174B (11720279_a_at) / Fold change /veh FAM174B (11720279_a_at) / RFU TMPRSS4 (11748680_a_at) / Fold change /veh TMPRSS4 (11748680_a_at) / RFU FAM212B (11763350_a_at) / Fold change /veh FAM212B (11763350_a_at) / RFU PLEKHG5 (11743358_a_at) / Fold change /veh PLEKHG5 (11743358_a_at) / RFU ZSCAN30 (11745921_a_at) / Fold change /veh ZSCAN30 (11745921_a_at) / RFU CMKLR1 (11741424_a_at) / Fold change /veh CMKLR1 (11741424_a_at) / RFU LOC101060620 /// MAPK8IP1 (11723275_at) / Fold change /veh LOC101060620 /// MAPK8IP1 (11723275_at) / RFU SPTSSB (11747773_x_at) / Fold change /veh SPTSSB (11747773_x_at) / RFU PRSS12 (11739890_at) / Fold change /veh PRSS12 (11739890_at) / RFU BIN1 (11741810_x_at) / Fold change /veh BIN1 (11741810_x_at) / RFU WNT11 (11732464_a_at) / Fold change /veh WNT11 (11732464_a_at) / RFU C10orf10 (11716521_a_at) / Fold change /veh C10orf10 (11716521_a_at) / RFU C5orf56 (11738089_at) / Fold change /veh C5orf56 (11738089_at) / RFU CYB561 (11721691_x_at) / Fold change /veh CYB561 (11721691_x_at) / RFU ANKRD19P (11752326_a_at) / Fold change /veh ANKRD19P (11752326_a_at) / RFU OR2T12 /// OR2T33 /// OR2T8 (11738714_s_at) / Fold change /veh OR2T12 /// OR2T33 /// OR2T8 (11738714_s_at) / RFU VCAN (11748164_a_at) / Fold change /veh VCAN (11748164_a_at) / RFU JSRP1 (11732532_at) / Fold change /veh JSRP1 (11732532_at) / RFU KRTAP10-11 (11738290_x_at) / Fold change /veh KRTAP10-11 (11738290_x_at) / RFU MYO3A (11730013_a_at) / Fold change /veh MYO3A (11730013_a_at) / RFU EBF3 (11725865_a_at) / Fold change /veh EBF3 (11725865_a_at) / RFU CAMK2N1 (11719241_x_at) / Fold change /veh CAMK2N1 (11719241_x_at) / RFU C5orf56 (11738088_a_at) / Fold change /veh C5orf56 (11738088_a_at) / RFU OLFML3 (11715873_a_at) / Fold change /veh OLFML3 (11715873_a_at) / RFU LOC100653217 /// NTM (11731650_a_at) / Fold change /veh LOC100653217 /// NTM (11731650_a_at) / RFU MAPK11 (11762145_a_at) / Fold change /veh MAPK11 (11762145_a_at) / RFU FIZ1 (11724087_x_at) / Fold change /veh FIZ1 (11724087_x_at) / RFU OASL (11726364_x_at) / Fold change /veh OASL (11726364_x_at) / RFU SOX15 (11748057_x_at) / Fold change /veh SOX15 (11748057_x_at) / RFU CD79A (11719716_a_at) / Fold change /veh CD79A (11719716_a_at) / RFU HIST1H1D (11736915_at) / Fold change /veh HIST1H1D (11736915_at) / RFU CASKIN2 (11723855_a_at) / Fold change /veh CASKIN2 (11723855_a_at) / RFU LOC730098 (11760151_x_at) / Fold change /veh LOC730098 (11760151_x_at) / RFU OR4N2 (11742367_at) / Fold change /veh OR4N2 (11742367_at) / RFU PRRT2 (11749266_a_at) / Fold change /veh PRRT2 (11749266_a_at) / RFU SNX32 (11753110_a_at) / Fold change /veh SNX32 (11753110_a_at) / RFU CDHR5 (11726645_a_at) / Fold change /veh CDHR5 (11726645_a_at) / RFU RCAN1 (11760418_a_at) / Fold change /veh RCAN1 (11760418_a_at) / RFU FAM167A (11723789_a_at) / Fold change /veh FAM167A (11723789_a_at) / RFU FAM26E (11764081_at) / Fold change /veh FAM26E (11764081_at) / RFU ISYNA1 (11749810_s_at) / Fold change /veh ISYNA1 (11749810_s_at) / RFU ACY1 (11761880_at) / Fold change /veh ACY1 (11761880_at) / RFU 11764098_at / Fold change /veh 11764098_at / RFU SAMD14 (11745864_x_at) / Fold change /veh SAMD14 (11745864_x_at) / RFU NPB (11741838_a_at) / Fold change /veh NPB (11741838_a_at) / RFU TMPRSS6 (11731388_a_at) / Fold change /veh TMPRSS6 (11731388_a_at) / RFU KRTAP10-2 (11738614_at) / Fold change /veh KRTAP10-2 (11738614_at) / RFU ARHGAP8 /// PRR5-ARHGAP8 (11727945_x_at) / Fold change /veh ARHGAP8 /// PRR5-ARHGAP8 (11727945_x_at) / RFU KRTAP5-7 /// NADSYN1 (11734609_at) / Fold change /veh KRTAP5-7 /// NADSYN1 (11734609_at) / RFU RASL12 (11751679_a_at) / Fold change /veh RASL12 (11751679_a_at) / RFU CDKN2B (11736163_a_at) / Fold change /veh CDKN2B (11736163_a_at) / RFU PRF1 (11729649_at) / Fold change /veh PRF1 (11729649_at) / RFU, ZNF638 /// ZNF638-IT1 / Fold change vs veh, ZNF638 /// ZNF638-IT1 / RFU, PANK3 / Fold change vs veh, PANK3 / RFU, SH3YL1 / Fold change vs veh, SH3YL1 / RFU, ZEB2 / Fold change vs veh, ZEB2 / RFU, NRIP1 / Fold change vs veh, NRIP1 / RFU, PTTG1IP / Fold change vs veh, PTTG1IP / RFU, CAPN2 / Fold change vs veh, CAPN2 / RFU, MED14 / Fold change vs veh, MED14 / RFU, SNORA58 / Fold change vs veh, SNORA58 / RFU, C1orf63 / Fold change vs veh, C1orf63 / RFU, LRRFIP1 / Fold change vs veh, LRRFIP1 / RFU, NDUFAF7 / Fold change vs veh, NDUFAF7 / RFU, SLC12A2 / Fold change vs veh, SLC12A2 / RFU, IBTK / Fold change vs veh, IBTK / RFU, ESF1 / Fold change vs veh, ESF1 / Fold change vs veh, TMEM50B / RFU, TAOK1 / Fold change vs veh, TAOK1 / RFU, ACBD3 / Fold change vs veh, ACBD3 / RFU, TMA16 / Fold change vs veh, TMA16 / RFU, RWDD3 / Fold change vs veh, RWDD3 / RFU, BCAT1 / Fold change vs veh, BCAT1 / RFU, EDEM3 / Fold change vs veh, EDEM3 / RFU, TMEM33 / Fold change vs veh, TMEM33 / RFU, WDR75 / Fold change vs veh, WDR75 / RFU, AHCTF1 / Fold change vs veh, AHCTF1 / RFU, TFRC / Fold change vs veh, TFRC / RFU, ZDHHC17 / Fold change vs veh, ZDHHC17 / RFU, NOM1 / Fold change vs veh, NOM1 / RFU, ARL8B / Fold change vs veh, ARL8B / RFU, ZBTB11 / Fold change vs veh, ZBTB11 / RFU, TAMM41 / Fold change vs veh, TAMM41 / RFU, KIAA1704 /// LOC100996395 / Fold change vs veh, KIAA1704 /// LOC100996395 / RFU, ING1 / Fold change vs veh, ING1 / RFU, TRMT61B / Fold change vs veh, TRMT61B / RFU, FUBP3 / Fold change vs veh, FUBP3 / RFU, TP53 / Fold change vs veh, TP53 / RFU, TNKS2 / Fold change vs veh, TNKS2 / RFU, ZFP14 / Fold change vs veh, ZFP14 / RFU, ACTR2 / Fold change vs veh, ACTR2 / RFU, PPP3R1 / Fold change vs veh, PPP3R1 / RFU, PIK3R1 / Fold change vs veh, PIK3R1 / RFU, HNRNPA1 / Fold change vs veh, HNRNPA1 / RFU, RNF170 / Fold change vs veh, RNF170 / RFU, ZNF28 / Fold change vs veh, ZNF28 / RFU, RNGTT / Fold change vs veh, RNGTT / RFU, OGT / Fold change vs veh, OGT / RFU, BRD1 / Fold change vs veh, BRD1 / RFU, MARS / Fold change vs veh, MARS / RFU, ZNF655 / Fold change vs veh, ZNF655 / RFU, FAHD1 / Fold change vs veh, FAHD1 / RFU, BDP1 / Fold change vs veh, BDP1 / RFU, LRRCC1 / Fold change vs veh, LRRCC1 / RFU, ARID1A / Fold change vs veh, ARID1A / RFU, ZNF146 / Fold change vs veh, ZNF146 / RFU, ZNF330 / Fold change vs veh, ZNF330 / RFU, GPN3 / Fold change vs veh, GPN3 / RFU, C9orf123 / Fold change vs veh, C9orf123 / RFU, N4BP2L2 / Fold change vs veh, N4BP2L2 / RFU, ARFIP1 / Fold change vs veh, ARFIP1 / RFU, FAM179B / Fold change vs veh, FAM179B / RFU, BCL10 / Fold change vs veh, BCL10 / RFU, UHRF1BP1L / Fold change vs veh, UHRF1BP1L / RFU, BET1 / Fold change vs veh, BET1 / RFU, CNOT2 / Fold change vs veh, CNOT2 / RFU, ZNF268 / Fold change vs veh, ZNF268 / Fold change vs veh, ZNF507 / RFU, DGCR2 / Fold change vs veh, DGCR2 / RFU, WDSUB1 / Fold change vs veh, WDSUB1 / Fold change vs veh, HSP90B1 /// MIR3652 / RFU, ADSS / Fold change vs veh, ADSS / RFU, GK / Fold change vs veh, GK / RFU, ZNF148 / Fold change vs veh, ZNF148 / RFU, TAF9 / Fold change vs veh, TAF9 / RFU, SLC1A5 / Fold change vs veh, SLC1A5 / RFU, SLMO2 / Fold change vs veh, SLMO2 / RFU, ABCC4 / Fold change vs veh, ABCC4 / RFU, LOC101060439 /// RAP1B / Fold change vs veh, LOC101060439 /// RAP1B / RFU, RFX7 / Fold change vs veh, RFX7 / RFU, GTPBP10 / Fold change vs veh, GTPBP10 / RFU, CNEP1R1 / Fold change vs veh, CNEP1R1 / RFU, BIVM-ERCC5 /// ERCC5 / Fold change vs veh, BIVM-ERCC5 /// ERCC5 / RFU, ILF3 / Fold change vs veh, ILF3 / RFU 11762660_at / Fold change /veh 11762660_at / RFU VCAN (11757783_s_at) / Fold change /veh VCAN (11757783_s_at) / RFU DDX43 (11728927_at) / Fold change /veh DDX43 (11728927_at) / RFU KRT8 (11758188_x_at) / Fold change /veh KRT8 (11758188_x_at) / RFU NKD1 (11759106_at) / Fold change /veh NKD1 (11759106_at) / RFU SRD5A1 (11742802_a_at) / Fold change /veh SRD5A1 (11742802_a_at) / RFU TPSAB1 /// TPSB2 (11721975_s_at) / Fold change /veh TPSAB1 /// TPSB2 (11721975_s_at) / RFU GSTM3 (11746129_a_at) / Fold change /veh GSTM3 (11746129_a_at) / RFU IL23R (11737362_x_at) / Fold change /veh IL23R (11737362_x_at) / RFU TMEM51 (11727254_a_at) / Fold change /veh TMEM51 (11727254_a_at) / RFU PIWIL2 (11732686_x_at) / Fold change /veh PIWIL2 (11732686_x_at) / RFU ORM1 (11744905_x_at) / Fold change /veh ORM1 (11744905_x_at) / RFU CCDC152 (11743942_at) / Fold change /veh CCDC152 (11743942_at) / RFU ECM1 (11717891_a_at) / Fold change /veh ECM1 (11717891_a_at) / RFU IL23R (11748794_a_at) / Fold change /veh IL23R (11748794_a_at) / RFU TNFAIP8L3 (11732012_x_at) / Fold change /veh TNFAIP8L3 (11732012_x_at) / RFU MBOAT4 (11741988_at) / Fold change /veh MBOAT4 (11741988_at) / RFU 11764193_at / Fold change /veh 11764193_at / RFU TMEM53 (11763286_at) / Fold change /veh TMEM53 (11763286_at) / RFU MAGEB2 (11727129_at) / Fold change /veh MAGEB2 (11727129_at) / RFU TMEM200A (11744735_a_at) / Fold change /veh TMEM200A (11744735_a_at) / RFU CCDC152 (11751479_a_at) / Fold change /veh CCDC152 (11751479_a_at) / RFU FAM211A (11726209_a_at) / Fold change /veh FAM211A (11726209_a_at) / RFU RGS16 (11746705_a_at) / Fold change /veh RGS16 (11746705_a_at) / RFU VCAN (11755009_s_at) / Fold change /veh VCAN (11755009_s_at) / RFU RHOB (11743442_s_at) / Fold change /veh RHOB (11743442_s_at) / RFU RGS16 (11720943_a_at) / Fold change /veh RGS16 (11720943_a_at) / RFU RGS16 (11720944_at) / Fold change /veh RGS16 (11720944_at) / RFU, VPS4B / Fold change vs veh, VPS4B / RFU, CREB1 / Fold change vs veh, CREB1 / RFU, DNAJC13 / Fold change vs veh, DNAJC13 / RFU, GNAQ / Fold change vs veh, GNAQ / RFU, CDK5R1 / Fold change vs veh, CDK5R1 / RFU, ZRANB3 / Fold change vs veh, ZRANB3 / RFU, CUL4A / Fold change vs veh, CUL4A / RFU, CCNY / Fold change vs veh, CCNY / RFU, UFL1 / Fold change vs veh, UFL1 / RFU, COG3 / Fold change vs veh, COG3 / RFU, DIAPH2 / Fold change vs veh, DIAPH2 / RFU, SKA2 / Fold change vs veh, SKA2 / RFU, AFF3 / Fold change vs veh, AFF3 / RFU, LMF1 / Fold change vs veh, LMF1 / RFU, IPO11 / Fold change vs veh, IPO11 / RFU, DFFB / Fold change vs veh, DFFB / RFU, FOXP1 / Fold change vs veh, FOXP1 / RFU, CARD8 / Fold change vs veh, CARD8 / RFU, STRN3 / Fold change vs veh, STRN3 / RFU, ADK / Fold change vs veh, ADK / RFU, RASSF2 / Fold change vs veh, RASSF2 / RFU, WIPF1 / Fold change vs veh, WIPF1 / RFU, LARP1B / Fold change vs veh, LARP1B / RFU, RASA1 / Fold change vs veh, RASA1 / RFU, RB1 / Fold change vs veh, RB1 / RFU, PPFIA1 / Fold change vs veh, PPFIA1 / RFU, MAT2A / Fold change vs veh, MAT2A / RFU, CCT5 / Fold change vs veh, CCT5 / RFU, WDR92 / Fold change vs veh, WDR92 / RFU, CUX1 / Fold change vs veh, CUX1 / RFU, TTC7A / Fold change vs veh, TTC7A / RFU, TMEM135 / Fold change vs veh, TMEM135 / RFU, DEPTOR / Fold change vs veh, DEPTOR / RFU, CPM / Fold change vs veh, CPM / RFU, DNAJB6 / Fold change vs veh, DNAJB6 / RFU, CACNA2D3 / Fold change vs veh, CACNA2D3 / RFU, DTX4 / Fold change vs veh, DTX4 / RFU, TFCP2 / Fold change vs veh, TFCP2 / RFU, GMCL1 /// GMCL1P1 / Fold change vs veh, GMCL1 /// GMCL1P1 / RFU, AEBP2 / Fold change vs veh, AEBP2 / RFU, SNHG1 /// SNORD22 /// SNORD25 /// SNORD26 /// SNORD27 /// SNORD28 /// SNORD29 /// SNORD31 / Fold change vs veh, SNHG1 /// SNORD22 /// SNORD25 /// SNORD26 /// SNORD27 /// SNORD28 /// SNORD29 /// SNORD31 / Fold change (Aza/veh), C12orf56 (ProbeSet 11735607_a_at) / Fold change (ACY-1035/veh), C12orf56 (ProbeSet 11735607_a_at) / Fold change (Aza/veh), FGFR1OP (ProbeSet 11751329_s_at) / Fold change (ACY-1035/veh), FGFR1OP (ProbeSet 11751329_s_at) / Fold change (Aza/veh), VPS36 (ProbeSet 11739960_a_at) / Fold change (ACY-1035/veh), VPS36 (ProbeSet 11739960_a_at) / RFU SYPL1 (11715823_x_at) / Fold change /veh SYPL1 (11715823_x_at) / RFU IGFBP7 (11715501_s_at) / Fold change /veh IGFBP7 (11715501_s_at) / RFU REEP3 (11722064_at) / Fold change /veh REEP3 (11722064_at) / RFU IGLL1 (11728026_x_at) / Fold change /veh IGLL1 (11728026_x_at): dose or concentration left out as unconfirmed
Conditions: MV-4-11 cells, 48 hours

## Nc1ncn([C@@H]2O[C@H](CO)[C@@H](O)[C@H]2O)c(=O)n1 [azacitidine]
  RFU CNN1 (11734310_a_at): 25.48 RFU
